Key:
Test in all cases: NCI-60 one-dose screen
Format in all cases: cell-based
[1] = test system: A549; settings: Homo sapiens; Non-Small Cell Lung A549, 10 μM, 48 h; read-out: Percent growth inhibition
Experimental: (§1) Compounds 1 and 2 were submitted to the National Cancer Institute NCI-60 Tumor Cell Screening Program (NCI number 800,700 and 800,701, respectively) for evaluation against the 60 cell line NCI panel at a single dose of 10 μM. […] Leukemia and breast cancer cell lines comprised the only cancer groups that were uniformly sensitive to both 1 and 2, with the greatest sensitivity seen in the leukemia SR cell line.
(§2) Compounds 1 and 2 were submitted to the NCI for growth inhibition screening against its panel of 60 cancer cell lines. The NCI screening protocol has extensively been described [[53], [54], [55], [56]]. Briefly, cancerous cell lines were grown in RPMI 1640 medium containing 5% fetal bovine serum and 2 mM L-glutamine. Depending on the doubling time of each cell line, 5000–40,000 cells were seeded in 96-well plates for 24 h. Cells were then treated with compounds 1 or 2 at a concentration of 10 μM and incubated for 48 h at 37 °C in a humidified atmosphere containing 5% CO2. The cells were then fixed and stained with sulforhodamine B (SRB) to determine their viability. The data were analyzed using a program called COMPARE to determine the percent growth inhibition of each compound.

[2] = test system: ACHN; settings: Homo sapiens, Renal ACHN, 48 h, read-out: Percent growth inhibition
Experimental: as §1, §2

[3] = test system: COLO205; settings: Homo sapiens, COLO 205; Colon COLO205, 10 μM, 48 h; read-out: Percent growth inhibition
Experimental: as §1, §2

[4] = test system: EKVX; settings: Homo sapiens, Non-Small Cell Lung EKVX, 48 h, read-out: Percent growth inhibition
Experimental: as §1, §2

[5] = test system: IGROV1; settings: Homo sapiens, IGROV-1; Ovarian IGROV1, 10 μM, 48 h; read-out: Percent growth inhibition
Experimental: as §1, §2

[6] = test system: LOXIMVI; settings: Homo sapiens, LOX IMVI, Melanoma LOXIMVI, 48 h, read-out: Percent growth inhibition
Experimental: as §1, §2

[7] = test system: MDA-MB-231; settings: Homo sapiens; Breast MDA-MB-231, 10 μM, 48 h; read-out: Percent growth inhibition
Experimental: as §1, §2

[8] = test system: MDA-MB-435; settings: Homo sapiens; Melanoma MDA-MB-435, 10 μM, 48 h; read-out: Percent growth inhibition
Experimental: as §1, §2

[9] = test system: MDA-MB-468; settings: Homo sapiens; Breast MDA-MB-468, 10 μM, 48 h; read-out: Percent growth inhibition
Experimental: as §1, §2

[10] = test system: NCI-H226; settings: Homo sapiens, NCI-H226, 48 h, Non-Small Cell Lung NCI-H226, 10 μM, read-out: Percent growth inhibition
Experimental: as §1, §2

[11] = test system: NCI-H23; settings: Homo sapiens; Non-Small Cell Lung NCI-H23, 10 μM, 48 h; read-out: Percent growth inhibition
Experimental: as §1, §2

[12] = test system: NCI-H460; settings: Homo sapiens; Non-Small Cell Lung NCI-H460, 10 μM, 48 h; read-out: Percent growth inhibition
Experimental: as §1, §2

[13] = test system: NCI-H522; settings: Homo sapiens; Non-Small Cell Lung NCI-H522, 10 μM, 48 h; read-out: Percent growth inhibition
Experimental: as §1, §2

[14] = test system: OVCAR-4; settings: Homo sapiens; Ovarian OVCAR-4, 10 μM, 48 h; read-out: Percent growth inhibition
Experimental: as §1, §2

[15] = test system: OVCAR-5; settings: Homo sapiens; Ovarian OVCAR-5, 10 μM, 48 h; read-out: Percent growth inhibition
Experimental: as §1, §2

[16] = test system: PC-3; settings: Homo sapiens; Prostate PC-3, 10 μM, 48 h; read-out: Percent growth inhibition
Experimental: as §1, §2

[17] = test system: RPMI-8226; settings: Homo sapiens; Leukemia RPMI-8226, 10 μM, 48 h; read-out: Percent growth inhibition
Experimental: as §1, §2

[18] = test system: RXF393; settings: Homo sapiens, RXF 393; Renal RXF393, 10 μM, 48 h; read-out: Percent growth inhibition
Experimental: as §1, §2

[19] = test system: SF-268; settings: Homo sapiens; CNS SF-268, 10 μM, 48 h; read-out: Percent growth inhibition
Experimental: as §1, §2

[20] = test system: SF-295; settings: Homo sapiens; CNS SF-295, 10 μM, 48 h; read-out: Percent growth inhibition
Experimental: as §1, §2

[21] = test system: SK-MEL-28; settings: Homo sapiens; Melanoma SK-MEL-28, 10 μM, 48 h; read-out: Percent growth inhibition
Experimental: as §1, §2

[22] = test system: SK-MEL-5; settings: Homo sapiens; Melanoma SK-MEL-5, 10 μM, 48 h; read-out: Percent growth inhibition
Experimental: as §1, §2

[23] = test system: SK-OV-3; settings: Homo sapiens, SK-OV-3, 48 h, Ovarian SK-OV-3, 10 μM, read-out: Percent growth inhibition
Experimental: as §1, §2

[24] = test system: SNB-19; settings: Homo sapiens; CNS SNB-19, 10 μM, 48 h; read-out: Percent growth inhibition
Experimental: as §1, §2

[25] = test system: TK-10; settings: Homo sapiens; Renal TK-10, 10 μM, 48 h; read-out: Percent growth inhibition
Experimental: as §1, §2

[26] = test system: U251; settings: Homo sapiens, U-251; CNS U251, 10 μM, 48 h; read-out: Percent growth inhibition
Experimental: as §1, §2

[27] = test system: UACC-62; settings: Homo sapiens; Melanoma UACC-62, 10 μM, 48 h; read-out: Percent growth inhibition
Experimental: as §1, §2

[28] = test system: UO-31; settings: Homo sapiens; Renal UO-31, 10 μM, 48 h; read-out: Percent growth inhibition
Experimental: as §1, §2

Row | SMILES | inhibition at 10 µM [1] | inhibition at 10 µM [2] | inhibition at 10 µM [3] | inhibition at 10 µM [4] | inhibition at 10 µM [5] | inhibition at 10 µM [6] | inhibition at 10 µM [7] | inhibition at 10 µM [8] | inhibition at 10 µM [9] | inhibition at 10 µM [10] | inhibition at 10 µM [11] | inhibition at 10 µM [12] | inhibition at 10 µM [13] | inhibition at 10 µM [14] | inhibition at 10 µM [15] | inhibition at 10 µM [16] | inhibition at 10 µM [17] | inhibition at 10 µM [18] | inhibition at 10 µM [19] | inhibition at 10 µM [20] | further results
1 | CCn1cc(Nc2ncc3nnn(-c4ccc(C(=O)OC)cc4)c3n2)cn1 [Compound 1, Methyl 4-(5-((1-ethyl-1H-pyrazol-4-yl)amino)-3H-[1,2,3]triazolo[4,5-d]pyrimidin-3-yl)benzoate] | 18.6% | 1.27% | 16.3% | -4.33% | -16.8% | 34.9% | 0.42% | 9.99% | 6.13% | 34.6% | 3.87% | 0.26% | 24.3% | -12% | -5.43% | 16.7% | 10.8% | -4.13% | 0.6% | -2.41% | inhibition at 10 µM [21]: -4.08%; inhibition at 10 µM [22]: 40.4%; inhibition at 10 µM [23]: 22%; inhibition at 10 µM [24]: -9.34%; inhibition at 10 µM [25]: 6.48%; inhibition at 10 µM [26]: 27.6%; inhibition at 10 µM [27]: 5.19%; inhibition at 10 µM [28]: 10.4%
2 | CCOc1ccc(-n2nnc3cnc(Nc4cnn(CC)c4)nc32)cc1 [Compound 2, 3-(4-Ethoxyphenyl)-N-(1-ethyl-1H-pyrazol-4-yl)-3H-[1,2,3]triazolo[4,5-d]pyrimidin-5-amine] | 25.2% | 17.8% | 29.9% | -5.32% | 5.39% | 45.7% | 7.57% | 20% | 9.91% | 46.3% | 5.25% | 5.14% | 31.8% | -14.7% | -11.8% | 23.4% | 17% | 43.8% | 12.7% | 3.75% | inhibition at 10 µM [21]: -2.62%; inhibition at 10 µM [22]: 26.4%; inhibition at 10 µM [23]: 46.3%; inhibition at 10 µM [24]: -0.19%; inhibition at 10 µM [25]: 1.47%; inhibition at 10 µM [26]: 24.3%; inhibition at 10 µM [27]: 1.67%; inhibition at 10 µM [28]: 3.24%

From paper PMC6197744, “Triazolo[4,5-d]pyrimidines as Validated General Control Nonderepressible 2 (GCN2) Protein Kinase Inhibitors Reduce Growth of Leukemia Cells” (Computational and Structural Biotechnology Journal, 2018)
